# Results: ChEMBL document CHEMBL5331042, “Azole inhibitors of mushroom and human tyrosinases: Current advances and prospects of drug development for melanogenic dermatological disorders” (Eur J Med Chem, 2022)
# Peptide text beside a SMILES is read from it.
# Target: T1, Tyrosinase (Homo sapiens, UniProt P14679)
# T1 sequence (P14679 whole entry): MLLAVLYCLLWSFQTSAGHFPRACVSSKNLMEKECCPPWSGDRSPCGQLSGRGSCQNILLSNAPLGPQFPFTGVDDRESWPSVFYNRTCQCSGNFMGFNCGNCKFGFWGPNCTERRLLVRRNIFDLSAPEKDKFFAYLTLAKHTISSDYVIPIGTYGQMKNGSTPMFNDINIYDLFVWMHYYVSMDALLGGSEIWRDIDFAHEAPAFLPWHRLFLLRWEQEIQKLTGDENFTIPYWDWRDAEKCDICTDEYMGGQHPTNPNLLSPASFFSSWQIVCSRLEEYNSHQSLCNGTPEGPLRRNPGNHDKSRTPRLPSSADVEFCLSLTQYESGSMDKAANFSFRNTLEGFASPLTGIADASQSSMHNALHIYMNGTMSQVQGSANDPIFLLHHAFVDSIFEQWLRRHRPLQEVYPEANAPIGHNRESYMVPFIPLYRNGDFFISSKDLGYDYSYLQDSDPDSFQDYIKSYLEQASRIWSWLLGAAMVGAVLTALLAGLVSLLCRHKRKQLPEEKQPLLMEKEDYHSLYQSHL
# Experiment: Inhibition of human tyrosinase using L-DOPA as substrate incubated for 10 to 20 mins by MBTH dye based assay
row,SMILES,IC50 [µM]
1,Oc1ccc(-c2csc(Nc3ncccn3)n2)cc1,19
2,CN(C(=O)C1CCCCC1)c1nc(-c2ccc(O)cc2O)cs1,> 1000
3,CC(=O)Nc1nc(-c2ccc(O)cc2O)c[nH]1,> 700
4,OCCc1ccc(O)cc1O,> 200
5,CC(C)(O)c1ccc(C(=O)Nc2nc(-c3ccc(O)cc3O)cs2)cc1,3.2
6,Oc1ccc(-c2csc(NC3CCCCC3)n2)c(O)c1,16
7,CCCC(=O)Nc1cnc(-c2cc(CCC)c(O)cc2O)s1,> 1000
8,CC(C)Nc1nc(-c2ccc(O)cc2O)cs1,1.1
9,OCc1ccc(Nc2nc(-c3ccc(O)cc3O)cs2)cc1,5.7
10,CCCNc1nc(-c2ccc(O)cc2O)cs1,6.2
11,O=C(NC1CCCCC1)c1csc(-c2ccc(O)cc2O)n1,3.2
12,CCC(=O)Nc1nc(-c2ccc(O)cc2F)cs1,> 700
13,CC(=O)Nc1nc(-c2ccc(O)cc2O)cs1,5.6
14,CCCCc1ccc(O)c(C)c1O,> 200
15,CC(C)(C)C(=O)Nc1nc(-c2ccc(O)cc2O)cs1,5.7
16,CC(C)C(=O)Nc1nc(-c2ccc(O)cc2O)cs1,1.4
17,CCCCCCc1ccc(O)c(C)c1O,93
18,O=C(Nc1cccc(-c2ccc(O)cc2O)c1)C1CCCCC1,> 700
19,CN(c1nc(-c2ccc(O)cc2O)cs1)C1CCCCC1,40
20,CC(=O)/C=C/Nc1nc(-c2ccc(O)cc2O)cs1,3.5
21,O=C(NC1CCCCC1)c1nc(-c2ccc(O)cc2O)cs1,56
22,Cc1sc(NC(=O)C2CCCCC2)nc1-c1ccc(O)cc1O,> 1000

# Target: T2, Mushroom tyrosinase (Agaricus bisporus, UniProt O42713+Q00024+C7FF04+C7FF05)
# Experiment: Inhibition of mushroom tyrosinase using L-tyrosine as substrate preincubated for 20 mins followed by substrate addition by absorbance based analysis
row,SMILES,IC50 [µM]
1,NC(=S)N/N=C/c1ccc(OCc2cn(CC(=O)NCc3ccccc3)nn2)cc1,0.25
2,NC(=S)N/N=C/c1ccc(OCc2cn(CC(=O)Nc3ccccc3)nn2)cc1,0.79
3,NC(=S)N/N=C/c1ccc(OCc2cn(CC(=O)NCc3ccc(F)cc3)nn2)cc1,0.83
4,COc1ccc(NC(=O)Cn2cc(COc3ccc(/C=N/NC(N)=S)cc3)nn2)cc1,0.12
5,Cc1c(NC(=O)Cn2cc(COc3ccc(/C=N/NC(N)=S)cc3)nn2)cccc1[N+](=O)[O-],0.25
6,NC(=S)N/N=C/c1ccc(OCc2cn(CC(=O)Nc3ccc(F)cc3)nn2)cc1,0.14
7,COc1cccc(NC(=O)Cn2cc(COc3ccc(/C=N/NC(N)=S)cc3)nn2)c1,0.22

# Target: T2, Mushroom tyrosinase
# Experiment: Binding affinity to mushroom tyrosinase assessed as inhibition constant using L-DOPA as substrate preincubated for 10 mins followed by substrate addition by absorbance based analysis
row,SMILES,Ki [µM]
1,COc1cc(C2CC(c3cc4ccccc4oc3=O)=NN2c2nc(-c3ccc(Br)cc3)cs2)ccc1OCc1ccccc1 (configuration not stated),0.0086
2,Oc1ccc(/C=N/c2nnc(S)s2)c(O)c1,0.075
3,COc1cc(/C=N/c2nnc(S)s2)ccc1O,0.038

# Target: T2, Mushroom tyrosinase
# Experiment: Inhibition of mushroom tyrosinase using L-DOPA as substrate preincubated for 20 mins followed by substrate addition by absorbance based analysis
row,SMILES,IC50 [µM]
1,NC(=S)N/N=C/c1ccc(OCc2cn(CC(=O)NCc3ccccc3)nn2)cc1,0.17
2,NC(=S)N/N=C/c1ccc(OCc2cn(CC(=O)Nc3cccc(Cl)c3)nn2)cc1,0.5
3,NC(=S)N/N=C/c1ccc(OCc2cn(CC(=O)Nc3ccccc3)nn2)cc1,2.18
4,Cc1c(Cl)cccc1NC(=O)Cn1cc(COc2ccc(/C=N/NC(N)=S)cc2)nn1,0.26
5,NC(=S)N/N=C/c1ccc(OCc2cn(CC(=O)NCc3ccc(F)cc3)nn2)cc1,0.43
6,NC(=S)N/N=C/c1ccc(OCc2cn(CC(=O)Nc3ccc([N+](=O)[O-])cc3)nn2)cc1,0.68
7,COc1ccc(NC(=O)Cn2cc(COc3ccc(/C=N/NC(N)=S)cc3)nn2)cc1,0.52
8,NC(=S)N/N=C/c1ccc(OCc2cn(CC(=O)Nc3ccc(Cl)cc3)nn2)cc1,0.14
9,NC(=S)N/N=C/c1ccc(OCc2cn(CC(=O)Nc3cccc(Br)c3)nn2)cc1,0.21
10,Cc1c(NC(=O)Cn2cc(COc3ccc(/C=N/NC(N)=S)cc3)nn2)cccc1[N+](=O)[O-],0.56
11,NC(=S)N/N=C/c1ccc(OCc2cn(CC(=O)Nc3ccc(F)cc3)nn2)cc1,0.6
12,COc1cccc(NC(=O)Cn2cc(COc3ccc(/C=N/NC(N)=S)cc3)nn2)c1,0.84
13,NC(=S)N/N=C/c1ccc(OCc2cn(CC(=O)Nc3cccc(Cl)c3Cl)nn2)cc1,0.42

# Target: T2, Mushroom tyrosinase
# Experiment: Inhibition of mushroom tyrosinase incubated for 10 mins by spectrophotometric analysis
row,SMILES,IC50 [µM]
1,CCCCCn1nc(-c2ccccc2)n(CC(=O)NNC(=S)Nc2cc(C(F)(F)F)cc(C(F)(F)F)c2)c1=O,> 20
2,CCCCCn1nc(-c2ccccc2)n(CC(=O)NNC(=O)Nc2ccccc2F)c1=O,> 20
3,CCCCCn1nc(-c2ccccc2)n(CC(=O)NNC(=S)Nc2ccc(Cl)cc2Cl)c1=O,> 20
4,CCCCCn1nc(-c2ccccc2)n(CC(=O)NNC(=O)Nc2ccc(Br)cc2)c1=O,> 20
5,CCCCCn1nc(-c2ccccc2)n(CC(=O)NNC(=S)Nc2ccccc2Br)c1=O,> 20
6,CCCCCn1nc(-c2ccccc2)n(CC(=O)NNC(=O)Nc2cc(C(F)(F)F)cc(C(F)(F)F)c2)c1=O,0.00197
7,CCCCCn1nc(-c2ccccc2)n(CC(=O)NNC(=S)Nc2cccc(F)c2)c1=O,15.2
8,CCCCCn1nc(-c2ccccc2)n(CC(=O)NNC(=O)Nc2cccc(Br)c2)c1=O,> 20
9,CCCCCn1nc(-c2ccccc2)n(CC(=O)NNC(=S)Nc2cc(Cl)cc(Cl)c2)c1=O,0.17
10,CCCCCn1nc(-c2ccccc2)n(CC(=O)NNC(=S)Nc2cccc(Br)c2)c1=O,> 20
11,CCCCCn1nc(-c2ccccc2)n(CC(=O)NNC(=O)Nc2ccccc2Cl)c1=O,> 20
12,CCCCCn1nc(-c2ccccc2)n(CC(=O)NNC(=O)Nc2ccc(C(F)(F)F)cc2)c1=O,> 20
13,CCCCCn1nc(-c2ccccc2)n(CC(=O)NNC(=O)Nc2cccc(F)c2)c1=O,> 20
14,CCCCCn1nc(-c2ccccc2)n(CC(=O)NNC(=S)Nc2ccc(Cl)cc2)c1=O,0.19
15,CCCCCn1nc(-c2ccccc2)n(CC(=O)NNC(=O)Nc2cccc(Cl)c2)c1=O,> 20
16,CCCCCn1nc(-c2ccccc2)n(CC(=O)NNC(=S)Nc2cccc(Cl)c2)c1=O,5.4
17,CCCCCn1nc(-c2ccccc2)n(CC(=O)NNC(=O)Nc2ccc(Cl)cc2)c1=O,> 20
18,CCCCCn1nc(-c2ccccc2)n(CC(=O)NNC(=S)Nc2ccccc2Cl)c1=O,4.68
19,CCCCCn1nc(-c2ccccc2)n(CC(=O)NNC(=S)Nc2ccc(F)cc2)c1=O,0.014
20,CCCCCn1nc(-c2ccccc2)n(CC(=O)NNC(=O)Nc2ccc(F)cc2)c1=O,> 20
21,CCCCCn1nc(-c2ccccc2)n(CC(=O)NNC(=O)Nc2ccc(F)cc2F)c1=O,> 20
22,CCCCCn1nc(-c2ccccc2)n(CC(=O)NNC(=S)Nc2ccc(C(F)(F)F)cc2)c1=O,1.49
23,CCCCCn1nc(-c2ccccc2)n(CC(=O)NNC(=S)Nc2ccccc2F)c1=O,> 20
24,CCCCCn1nc(-c2ccccc2)n(CC(=O)NNC(=S)Nc2ccc(Br)cc2)c1=O,0.019
25,CCCCCn1nc(-c2ccccc2)n(CC(=O)NNC(=O)Nc2ccccc2Br)c1=O,> 20
26,CCCCCn1nc(-c2ccccc2)n(CC(=O)NNC(=O)Nc2cccc(C(F)(F)F)c2)c1=O,0.00165

# Target: T2, Mushroom tyrosinase
# Experiment: Inhibition of mushroom tyrosinase
row,SMILES,IC50 [µM]
1,CC(C)[C@@H]1NC(=O)[C@@H]2CCCN2C(=O)[C@H](Cc2ccc(O)cc2)n2cc(nn2)[C@@H]2CCCN2C1=O,0.5
2,CC(C)[C@@H]1NC(=O)[C@@H]2CCCN2C(=O)[C@H](Cc2ccc(O)cc2)NC(=O)[C@@H]2CCCN2C1=O (cyclo(PVPY)),0.6
3,CC(C)[C@H]1C(=O)N2CCC[C@H]2C(=O)N[C@@H](Cc2ccc(O)cc2)C(=O)N2CCC[C@H]2c2cn1nn2,1.5
4,CC(C)[C@H]1C(=O)N2CCC[C@H]2c2cn(nn2)[C@@H](Cc2ccc(O)cc2)C(=O)N2CCC[C@H]2c2cn1nn2,1.6

# Target: T2, Mushroom tyrosinase
# Experiment: Inhibition of mushroom tyrosinase using L-DOPA as substrate preincubated for 10 mins followed by substrate addition by absorbance based analysis
row,SMILES,IC50 [µM]
1,COc1cc(C2CC(c3cc4ccccc4oc3=O)=NN2c2nc(-c3ccc(Br)cc3)cs2)ccc1OCc1ccccc1 (configuration not stated),0.00458
2,Oc1ccc(/C=N/c2nnc(S)s2)c(O)c1,0.25
3,COc1cc(/C=N/c2nnc(S)s2)ccc1O,0.036

# Target: T2, Mushroom tyrosinase
# Experiment: Inhibition of mushroom tyrosinase using L-DOPA as substrate preincubated for 10 mins followed by substrate addition and measured after 20 mins
row,SMILES,IC50 [µM]
1,CCCCn1c(SCC(=O)Nc2ccc(I)cc2)nnc1-c1ccccc1,0.21
2,COc1ccccc1-n1c(SCC(=O)Nc2ccccc2)nnc1-c1ccccc1F,0.54
3,COc1ccccc1-n1c(SCC(=O)Nc2ccccc2)nnc1-c1ccccc1,0.02
4,COc1ccccc1-n1c(SCC(=O)Nc2ccc(F)cc2)nnc1-c1ccccc1F,0.17
5,CCCCn1c(SCC(=O)Nc2ccc(F)cc2)nnc1-c1ccccc1,0.37
6,COc1ccccc1-n1c(SCC(=O)Nc2ccc(Br)cc2)nnc1-c1ccccc1F,0.15
7,COc1ccccc1-n1c(SCC(=O)Nc2ccc(I)cc2)nnc1-c1ccccc1,0.65
8,CCCCn1c(SCC(=O)Nc2ccccc2)nnc1-c1ccccc1,0.21
9,COc1ccccc1-n1c(SCC(=O)Nc2ccc(F)cc2)nnc1-c1ccccc1,0.08
10,COc1ccccc1-n1c(SCC(=O)Nc2ccc(I)cc2)nnc1-c1ccccc1F,0.06
11,CCCCn1c(SCC(=O)Nc2ccc(Br)cc2)nnc1-c1ccccc1,0.34

# System: not listed separately
# Experiment: Cytotoxicity against mouse B16-F10 cells assessed as inhibition of cell growth at 8 uM measured after 24 hrs by MTT assay relative to control
# Type: toxicity, cell-based
row,SMILES,"inhibition at 24 h, 8 µM [%]"
1,NC(=S)N/N=C/c1ccc(OCc2cn(CC(=O)NCc3ccccc3)nn2)cc1,39.8
2,O=c1cc(CO)occ1O [KOJIC ACID],94
3,NC(=S)N/N=C/c1ccc(OCc2cn(CC(=O)Nc3ccc(Cl)cc3)nn2)cc1,69.6
4,NC(=S)N/N=C/c1ccc(OCc2cn(CC(=O)Nc3cccc(Br)c3)nn2)cc1,≤ 70

# Target: T1, Tyrosinase
# Experiment: Inhibition of human His-tagged tyrosinase CD expressed in HEK293 cells assessed as inhibition of melanin production using L-DOPA as substrate
# Type: cell-based
row,SMILES,IC50 [µM]
1,C[C@@H](O)CCc1ccc(O)cc1,1200
2,Oc1ccc(O)cc1 [HYDROQUINONE],15
3,CCCCc1ccc(O)cc1O [RUCINOL],13.5
4,CC(C)C(=O)Nc1nc(-c2ccc(O)cc2O)cs1,0.9
